Measurements as given in US5672603A, “Apoptosis regulating composition” (Otsuka Pharmaceutical Co., Ltd., priority 1991, dated 1997).
“And” between values parts separate entries of the source, which are not always exact repeats. Identical values can stand only once.

Assays:
HL-60 cells [1] = assay: Reactivity of HL-60 cells with anti-CD33 monoclonal antibody My9 (flow cytometry); assay type: cell-based, human; conditions: day 27, control 97
Procedure: The monoclonal antibody My9 (Coulter) capable of specifically reacting with immature granulocytes was dissolved by adding 0.5 ml of distilled water per vial.
HL-60 cells prepared as described above under (1) were cultivated in the same manner as in a). On day 27, the cell concentration was adjusted to 1×10^6 cells/ml and 100 μl of each aliquot was reacted with 10 μl of fluorescein (FITC)-labeled My9, followed by flow cytometry.

[2] = tested on: acute hepatic failure model; assay: Effect on hepatic failure (heat-killed bacteria / LPS), survival; assay type: in vivo, Balb/c mice; conditions: for Survival rate: 7 days after LPS, untreated 0%, solvent 10%
Procedure: Heat-killed cells of P. aches (a gift from Dr. Mizoguchi, the Third Department of Internal Medicine, Osaka City University School of Medicine) were administered intravenously in a dose of 3 mg/body to male Balb/c mice (7 weeks old, purchased from Japan SLC). Seven days later; a solvent group (0.5% CMC, Dai-ichi Kogyo Seiyaku Co., Ltd) and an untreated group, as well as the test groups given 10 or 100 mg/kg of Compound 1 orally, were provided. One hour after administration of Compound 1, 5 μg/body of lipopolysaccharide (LPS, Sigma Co., Ltd.) was administered intravenously to induce acute hepatic failure.

B16 melanoma cells = assay: Effect on experimental model of pulmonary metastasis of B16 melanoma cells; assay type: in vivo, mouse (C57BL/6 mice); conditions: for No. of colonies in lungs, Mean: control 86.7; for No. of colonies in lungs, individual mice: 4 days
Procedure: B16 mouse melanoma cells [Koren, S. and Fleischmann, W. R., J. Interferon Research, i, 473-482 (198)], 2×10^6 cells, were suspended in Eagle's MEM medium (Nissui Pharmaceutical Co., Ltd.) supplemented with 10% FBS (Gibco) to which 3 or 10 μg/ml of Compound 1 was previously added or not added. The suspension was cultured in a 75-cm^2 flask (Corning) in an incubator (National Appliance Model 15300) at 37° C. under 5% carbon dioxide for 4 days. Then, the cells were washed with Dulbecco's PBS solution (Nissui pharmaceutical Co., Ltd.), and 0.05% trypsin (Flow Laboratories) was added to detach the cells from the flask. The cells were washed centrifugally (Hitachi 05PR-22, 1200 rpm, 5 minutes) twice and after addition of 0.2% trypan blue (Wako Pure Chemical Industries Ltd.), viable cells were counted using a hemocytometer (No. J7796, Kayagaki Works) and the cells were diluted with Hank's solution (Flow Laboratories)to a concentration of 5×10^6 cells/ml.
The cells obtained as above were transplanted, in a population of 3×10^5 cells each, into groups of 7 C57BL/6 mice (7 weeks old, female, purchased from Charles River Japan, Inc.) through the tail vein. Twelve days later, the mice were killed by cervical dislocation and the number of colonies metastatized to the lungs was determined.

[3] = tested on: W/BF1 :(NZW×BXSB)F1 mice with spontaneous autoimmune disease; assay: Life-prolonging effect in autoimmune disease mice; assay type: in vivo
Text: W/BF1 :(NZW×BXSB)F1 mice are mice with spontaneous autoimmune disease. They are known as an animal model of lupus nephritis accompanied, with high frequency, by hypertension and myocardial infarction [Hang, L. M., et al., J. Exp. Med., 154, 216-221 (1981)]. They develop anti-platelet antibodies with increasing age, showing marked thrombocytopenia, and are used as an animal model of idiopathic thrombocytopenic purpura (ITP) as well [Oyaizu, N., et al., J. Exp. Med. 167, 2017-2077 (1988)]. It has been reported that more than 90% of the model animals die of myocardial infarction or renal failure within 8 months of birth [Ikehara, S., Metabolism and Disease, (Suppl) 26, 169-176 (1989)].
W/BF1 :(NZW×BXSB)F1 mice were used at the age of 14 weeks (purchased from Kiwa Experimental Animal). Groups of 10 mice were used in each experiment.
The mice in respective groups were given a diet (Oriental Yeast), which is usually given to this kind of mice, and water.
Compound 1 (Lot No. 9D87M) was used as suspended in a 0.5% solution of carborymethylcellulose (CMC, Cellogan). Compound 1 was administered to mice by oral garage in doses of 100 and 300 mg/kg body weight/day for 6 weeks from 14 weeks of age to 20 weeks of age according to the 5-day administration and 2-day cessation schedule. As a control, an untreated group was provided. […] Statistic analysis was performed by the generalized Wilcoxon test with respect to the untreated group.
In the figure, the ordinate represents the survival rate (%) and the abscissa represents the age in weeks (14 weeks to 20 weeks).

HL-60 cells [4] = assay: Differentiation of HL-60 cells (Giemsa and esterase staining); assay type: cell-based, human; conditions: day 27
Procedure: The concentration of HL-60 cells was adjusted to 1×10^5 cells/ml using RPMI-1640 medium (GIBCO) supplemented with 10% of FCS (fetal calf serum; GIBCO).
Giemsa stain solution was prepared by diluting Giemsa reagent (Merck) 50-100 times with phosphate buffer (pH 6.4).
A reagent for esterase staining (Muto Kagaku) was used according to the naphthol AS-D chloroacetate method.
HL-60 cells prepared as described above under (1) were cultivated in the same manner as in a). Cells collected on day 27 were placed on a slide glass and subjected to Giemsa staining, followed by morphological observation under a microscope. […] The results of esterase staining by the naphthol AS-D chloroacetate method indicated differentiation of 70-85% of HL-60 cells into granulocytes.

Which “Positive rate (%), anti-CD33 My9” value (HL-60 cells [1]; 1.0 μg/ml) does the source give for `COc1ccc(C(=O)N2CCN(c3ccc4c(c3)CCC(=O)N4)CC2)cc1OC` [Compound 1, 6-[4-(3,4-Dimethoxybenzoyl)-1-piperazinyl]-3,4-dihydrocarbostyril] here?
The value was 90%.

What about the “Positive rate (%), anti-CD33 My9” value (HL-60 cells [1]; 10 μg/ml) of the same molecule?
The value was 77%.

And the Survival rate ([2]; 10 mg/kg oral)?
Its Survival rate is 30%.

And the Survival rate ([2]; 100 mg/kg oral)?
Its Survival rate is 70%.

What about the “Life-prolonging effect in acute hepatitis model (in words)” value ([2]; 10 and 100 mg/kg oral) of the same molecule?
The value was “dose-dependent and excellent life-prolonging effect”.

And the “No. of colonies in lungs, Mean” value (B16 melanoma cells; 3 μg/ml, *P < 0.05)?
Its value is 10.0 colonies.

And the “No. of colonies in lungs, Mean” value (B16 melanoma cells; 10 μg/ml)?
Its value is 34.7 colonies.

What about the “Inhibition of pulmonary metastasis (in words)” value (B16 melanoma cells; 3 or 10 μg/ml) of the same molecule?
Its value is “evident inhibition of pulmonary metastasis”.

What about the “No. of colonies in lungs, individual mice” value (B16 melanoma cells; cells pre-incubated with 3 μg/ml) of the same molecule?
Its value is 14 colonies and 7 colonies and 11 colonies and 6 colonies and 8 colonies and 24 colonies and 0 colonies.

What about the “No. of colonies in lungs, individual mice” value (B16 melanoma cells; cells pre-incubated with 10 μg/ml) of the same molecule?
Its value is 17 colonies and 43 colonies (2×) and 65 colonies and 7 colonies and 46 colonies and 22 colonies.

What about the “Deaths till 20 weeks of age” value ([3]; 100 mg/kg/day oral, untreated: two, one and three dead at 17, 18, 19 weeks) of the same molecule?
Its value is “no death occurred”.

And the “Animals found dead at 18 weeks of age” value ([3]; 300 mg/kg/day oral, groups of 10)?
Its value is “two”.

And the “Life-prolonging effect (in words)” value ([3]; 100 and 300 mg/kg/day oral)?
The value was “significant life-prolonging effect”.

And the “Morphological change, Giemsa staining” value (HL-60 cells [4])?
The value was “differentiation into cells with granule was observed”.

What about the “Differentiation of HL-60 cells into granulocytes (esterase staining)” value (HL-60 cells [4]; naphthol AS-D chloroacetate method) of the same molecule?
Its value is 70-85%.
